Results: patent US12157713B2, “Conjugated oligoelectrolytes as antimicrobial agents” (Nanyang Technological University, priority 2018, dated 2024)
Several values for one entry are separate records, joined by “and”; a condition that tells them apart may be missing. Identical values can stand only once. Like-named read-outs stand apart in the source and are kept apart here.

Tests used:
E. coli K12 [1] = experiment: MIC by broth microdilution against E. coli K12; type: cell-based; settings: Escherichia coli, read-out: MIC against E. coli K12
Description: The respective minimum inhibition concentration (MIC) of each COE molecule was determined using a broth microdilution method. Briefly, COEs were diluted via a 2-fold dilution series in 100 μL of either Muller Hinton Broth (MHB) for E. coli and S. aureus or Brain Heart Infusion Broth (BHI) for E. faecalis in a 96-well plate to achieve the desired final concentration. Subsequently, each well was inoculated with 100 μL of 1×10^6 colony forming units (CFU) mL^−1 of the respective microorganism in MHB for E. coli or BHI for E. faecalis to achieve an inoculum density of 5×10^5 CFU mL^−1. The plates were then incubated at 37° C. with shaking (200 rpm) for 18 hrs. […] The results were obtained in triplicate.
The MIC values of COE-D4, COE-D6 and COE-D8 against the reference strain E. coli K12, pathogenic E. coli UT189, and the Gram positive pathogen Enterococcus faecalis OG1RF were determined using a broth microdilution method as described in the general method above. The MICs for E. coli K12 were determined to be 128, 16, and 4 μg mL^−1 for COE-D4, COE-D6, and COE-D8, respectively (FIG. 5a). […] This is not surprising as these two organisms differ in the capsular polysaccharides that they expressed, which are known to hinder the uptake of antimicrobials and mitigate their potency (M. A. Campos, et al., Infect. Immun. 2004, 72, 7107-7114). A K-type capsid comprising α2-8-linked sialic acid is excreted by UT189 and is known to be an important virulence factor for this organism (C. Whitfield, et al., Mol. Microbiol. 1999, 31, 1307-1319; G. G. Anderson, et al., Infect. Immun. 2010, 78, 963-975).

[2] = system: Staphylococcus aureus MRSA ATCC 43300; experiment: Single-dose growth inhibition, Sa; type: cell-based
Description: (§1) Inhibition of bacterial growth was determined by measuring the absorbance at 600 nm (OD600), using a Tecan M1000 Pro monochromator plate reader. Growth inhibition was calculated for each well, relative to the reference growths determined from a negative control (media only) and positive control (bacteria without inhibitors) incubated in the same plate. A single dose of 32 μg/mL of COE (final concentration) was used for each test.
(§2) Percentage growth inhibition of an individual sample was calculated based on growth in a reference well determined from negative controls (media only) and positive controls (bacterial/fungal media without inhibitors). Negative inhibition values indicate that the growth rate (or OD600) is higher compared to the reference growth (bacteria/fungi only, set to 0% inhibition). The growth rates for all bacteria and fungi may vary at −/+10%, which were within the reported normal distribution of bacterial/fungal growth. Any significant variations (or outliers/hits) were identified by the modified Z-Score, and the active compounds were selected by a combination of inhibition values and Z-Score.
(§3) A M(i) value of >|2.5| (absolute) would classify the sample as outliers or hits. Active samples were denoted as compounds with inhibition values equal to or above 80% and absolute Z-Score above |2.5| for either replicate (n=2 on different plates). Partial active samples were denoted as compounds with inhibition values from 50% to <80%, or absolute Z-Score below |2.5|.

[3] = system: Klebsiella pneumoniae MDR ATCC 700603; experiment: Single-dose growth inhibition, Kp; type: cell-based
Description: as §1, §2, §3

[4] = system: Escherichia coli FDA control ATCC 25922; experiment: Single-dose growth inhibition, Ec; type: cell-based
Description: as §1, §2, §3

[5] = system: Pseudomonas aeruginosa ATCC 27853; experiment: Single-dose growth inhibition, Pa; type: cell-based
Description: as §1, §2, §3

[6] = system: Acinetobacter baumannii ATCC 19606; experiment: Single-dose growth inhibition, Ab; type: cell-based
Description: as §1, §2, §3

[7] = system: Candida albicans ATCC 90028; experiment: Single-dose growth inhibition, Ca; type: cell-based
Description: (§4) Growth inhibition of C. albicans was determined by measuring the absorbance at 530 nm (OD530), while the growth inhibition of C. neoformans was determined by measuring the difference in absorbance between 600 and 570 nm (OD600-570), after the addition of resazurin (0.001 wt. % final concentration) and incubation at 35° C. for additional 2 hrs. The absorbance was measured using a Biotek Synergy HTX plate reader. The relative growth inhibition was calculated for each well, relative to that determined from a negative control (media only) and positive control (bacteria without inhibitors) on the same plate as references. A single dose of 32 μg/mL of COE (final concentration) was used for each test.
as §2, §3

[8] = system: Cryptococcus neoformans var. grubii H99; ATCC 208821; experiment: Single-dose growth inhibition, Cn; type: cell-based
Description: as §4, §2, §3

[9] = system: organism classes (Gram-negative, Gram-positive and fungi); experiment: Single-dose screening summary by organism class; type: cell-based; settings: 32 μg/mL; 0 = no activity
Description: as §2
Z-Score analysis was carried out to investigate outliers or hits among the samples. The Z-Score was calculated based on the sample population using a modified Z-Score method which accounts for possible skewed sample population. The modified method uses median and MAD ([…]) instead of average and standard deviation, and a scaling factor (Iglewicz, B. & Hoaglin, D. C. Volume 16: How to Detect and Handle Outliers. The ASQC Basic Reference in Quality Control: Statistical Techniques, 1993). The equation to calculate the modified Z-Score value is as follow: […]
as §3

[10] = Solubility in PBS / aqueous solubility; type: physicochemical
E. coli K12 [11] = experiment: Cellular uptake by E. coli K12 (absorption spectroscopy); type: cell-based, Escherichia coli; settings: 10 μg/mL COE in PBS, OD=0.5, 2 hrs, room temperature
Description: The relative membrane affinity of COE-D4, COE-D6 and COE-D8 was estimated from the quantity taken up by cells using absorption spectroscopy. After cultures of E. coli K12 were grown in MHB at 37° C., the cells were harvested by centrifugation (6000 rpm, 5 min) and washed twice with PBS solution (pH=7.2). The cells were then resuspended in PBS and with the density adjusted to OD=1.0. Thereafter, 5 mL of this cell suspension was mixed with an equal volume of 20 μg/mL of COE in PBS to achieve a final concentration of 10 μg/mL (in triplicates). After exposure to COEs for 2 hrs at room temperature and with shaking (200 rpm), the cells were removed by centrifugation and the supernatant was collected for absorbance scans to quantify the remaining COE in the supernatant. The uptake quantity was estimated by comparing the absorbance of the supernatant to the corresponding control COE solution (i.e. 10 μg/mL in PBS). The procedure for uptake measurements at the lower temperature is similar to the one described above, but with the exposure to COEs and centrifugation occurring at 4° C. instead of room temperature
The effect of molecular structures of the COEs on relative membrane affinity, estimated from the amount taken up by E. coli K12, was measured by absorption spectroscopy (FIG. 8a-c). These experiments utilised cell suspensions (OD=0.5) incubated for 2 hrs with 10 μg mL^−1 of various COE. Cells were removed by centrifugation, and the amount of uncomplexed COE was determined from the optical absorption spectra. The longest molecule, COE-D8, achieved the highest uptake in bacteria (72%). In contrast, only 3% of COE-D4 was absorbed while the uptake for COE-D6 was 16% (Table 1a).
Parallel experiments were carried out at 4° C. […] As a result of the reduced fluidity of cellular membrane at lower temperature, the uptake decreased to around 1% for COE-D4, 5% for COE-D6, and 34% for COE-D8.

[12] = K12, broth microdilution, MHB, 18 hrs
[13] = 32 μg/mL single dose, n=2, read-out: Growth inhibition Sa
[14] = ATCC700603, 32 μg/mL single dose, n=2, read-out: Growth inhibition Kp
[15] = ATCC25922, 32 μg/mL single dose, n=2, read-out: Growth inhibition Ec
[16] = ATCC27853, 32 μg/mL single dose, n=2, read-out: Growth inhibition Pa
[17] = ATCC19606, 32 μg/mL single dose, n=2, read-out: Growth inhibition Ab
[18] = ATCC90028, 32 μg/mL single dose, n=2, read-out: Growth inhibition Ca
[19] = ATCC208821, 32 μg/mL single dose, n=2, read-out: Growth inhibition Cn
[20] = aqueous buffer, in PBS, read-out: Solubility in PBS

| Structure (SMILES) | MIC (E. coli K12 [1]; K12, 18 h) | inhibition at 32 µg/mL ([2]; read-out: Growth inhibition Sa) | inhibition at 32 µg/mL ([3]; ATCC700603, read-out: Growth inhibition Kp) | inhibition at 32 µg/mL ([4]; ATCC25922, read-out: Growth inhibition Ec) | inhibition at 32 µg/mL ([5]; ATCC27853, read-out: Growth inhibition Pa) | inhibition at 32 µg/mL ([6]; ATCC19606, read-out: Growth inhibition Ab) | inhibition at 32 µg/mL ([7]; ATCC90028, read-out: Growth inhibition Ca) | inhibition at 32 µg/mL ([8]; ATCC208821, read-out: Growth inhibition Cn) | Activity: number of organism classes the compound has been found active against [9] | MIC (E. coli K12 [1]; [12]) | inhibition at 32 µg/mL [2, 13] | inhibition at 32 µg/mL [3, 14] | inhibition at 32 µg/mL [4, 15] | inhibition at 32 µg/mL [5, 16] | inhibition at 32 µg/mL [6, 17] | inhibition at 32 µg/mL [7, 18] | inhibition at 32 µg/mL [8, 19] | solubility [10, 20] | solubility ([10]; aqueous solution, read-out: aqueous solubility) | Uptake by E. coli K12 (E. coli K12 [11]) |
| --- | --- | --- | --- | --- | --- | --- | --- | --- | --- | --- | --- | --- | --- | --- | --- | --- | --- | --- | --- | --- |
| C[N+](C)(C)CC[N+](C)(C)CCCCOc1ccc(/C=C/c2ccc(OCCCC[N+](C)(C)CC[N+](C)(C)C)cc2)cc1 [COE-D42] | 128 µg/mL | > 80% | < 50% | < 50% | < 50% | < 50% | < 50% | < 50% | 1 | – | – | – | – | – | – | – | – | – | – | – |
| C[N+](C)(C)CC[N+](C)(C)CCCCCCOc1ccc(/C=C/c2ccc(OCCCCCC[N+](C)(C)CC[N+](C)(C)C)cc2)cc1 [COE-D62] | – | – | – | – | – | – | – | – | 3 | 16 µg/mL | > 80% | > 80% | > 80% | < 50% | > 80% | < 50% | > 80% | – | – | – |
| C[N+](C)(C)CC[N+](C)(C)CCCCCCCCOc1ccc(/C=C/c2ccc(OCCCCCCCC[N+](C)(C)CC[N+](C)(C)C)cc2)cc1 [COE-D82] | – | – | – | – | – | – | – | – | 3 | 32 µg/mL | > 80% | 50 to 80% | > 80% | > 80% | 50 to 80% | > 80% | > 80% | – | – | – |
| C[N+](C)(C)CCCCOc1ccc(/C=C/c2ccc(/C=C/c3ccc(OCCCC[N+](C)(C)C)cc3)cc2)cc1 [COE-T4] | – | – | – | – | – | – | – | – | 2 | 32 µg/mL | > 80% | < 50% | < 50% | < 50% | 50 to 80% | > 80% | > 80% | 210 µg/mL | 210 µg/mL | 75±5% and 80% |
| C[N+](C)(C)CCCCCCOc1ccc(/C=C/c2ccc(/C=C/c3ccc(OCCCCCC[N+](C)(C)C)cc3)cc2)cc1 [COE-T6] | – | – | – | – | – | – | – | – | 2 | > 16 µg/mL | > 80% | < 50% | < 50% | < 50% | < 50% | > 80% | > 80% | 76 µg/mL | – | 89% |
| CN(C)CC[N+](C)(C)CCCCOc1ccc(/C=C/c2ccc(/C=C/c3ccc(OCCCC[N+](C)(C)CCN(C)C)cc3)cc2)cc1 [COE-T42N] | – | – | – | – | – | – | – | – | 3 | 8 µg/mL | > 80% | < 50% | > 80% | < 50% | > 80% | > 80% | > 80% | – | – | – |
| CN(C)CC[N+](C)(C)CCCCCCOc1ccc(/C=C/c2ccc(/C=C/c3ccc(OCCCCCC[N+](C)(C)CCN(C)C)cc3)cc2)cc1 [COE-T62N] | – | – | – | – | – | – | – | – | 2 | 64 µg/mL | > 80% | < 50% | < 50% | < 50% | > 80% | > 80% | > 80% | – | – | – |
